Usually pEC50 stands for the EC50 on a negative log10 scale, so that one unit is a factor of ten. The term EC50 denotes the concentration at which the effect is half-maximal. A lower EC50 goes with a more potent agent.

The target of test [1] is ligand binding domain of human FXR (Homo sapiens (Human), UniProt Q96RI1). The test can be described thus: FXR ligand binding assay (LanthaScreen TR-FRET, SRC2-2 peptide recruitment). To be noted: for pEC50: -log EC50, concentration required to produce 50% activation; for Emax: extent of activation relative to GW4064, read-out: % Efficacy. In general terms: TR-FRET usually uses a lanthanide donor and a delayed reading to cut background.
ligand binding domain of human FXR, sequence (Q96RI1 262-486): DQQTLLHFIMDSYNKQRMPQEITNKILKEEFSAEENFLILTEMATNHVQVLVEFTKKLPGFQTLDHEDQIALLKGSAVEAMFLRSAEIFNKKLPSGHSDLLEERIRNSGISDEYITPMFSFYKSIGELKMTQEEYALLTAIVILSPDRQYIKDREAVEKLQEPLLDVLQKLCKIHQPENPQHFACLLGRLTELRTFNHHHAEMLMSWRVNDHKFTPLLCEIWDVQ

For test [2], the target named is human Farnesoid X receptor ligand-binding domain/Gal4 DNA binding domain chimera (Homo sapiens (Human), UniProt Q96RI1). The test can be described thus: Cell-based assay of FXR activation (FXR-UAS-bla HEK 293T beta-lactamase reporter). The note with it: cellular FXR beta-lactamase reporter assay; for EC50: FXR-UAS-bla HEK 293T cells, 16 h, pEC50 = -log EC50; for Emax: HEK-293T, extent of activation relative to GW4064, read-out: % Efficacy. The method, boiled down:
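Readout is cleavage of the CCF4 FRET substrate (409 nm excitation, blue 447 nm signal) by beta-lactamase, expressed under UAS control after a Gal4–human FXR LBD chimera is activated in HEK 293T cells. Compounds were added as 3-fold dilutions for 16 h at 37 °C in 2% charcoal-stripped FBS medium. Curves were fit to a 3-parameter logistic equation to give pEC50, with % activation relative to GW4064.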
(In a reporter assay the amount or activity of a reporter protein is the signal.)

Molecules are shown by their SMILES.

human Farnesoid X receptor ligand-binding domain/Gal4 DNA binding domain chimera, sequence (Q96RI1 262-486, change not shown): as the sequence (Q96RI1 262-486) above
human Farnesoid X receptor ligand-binding domain/Gal4 DNA binding domain chimera, sequence (P04386 1-147 partner): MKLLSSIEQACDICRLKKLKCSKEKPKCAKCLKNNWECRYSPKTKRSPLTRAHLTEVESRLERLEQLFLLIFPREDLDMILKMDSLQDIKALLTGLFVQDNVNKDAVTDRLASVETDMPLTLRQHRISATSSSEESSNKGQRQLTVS

With `O=C(O)c1cc(F)c2nc(N3C[C@H]4C[C@@H]3[C@H](OC(=O)c3c(-c5c(Cl)cccc5Cl)noc3C3CC3)C4)sc2c1` [Compound I-63, 2-[(1R,4S,6R)-6-[5-cyclopropyl-3-(2,6-dichlorophenyl)-1,2-oxazole-4-carbonyloxy]-2-azabicyclo[2.2.1]heptan-2-yl]-4-fluoro-1,3-benzothiazole-6-carboxylic Acid], in test [1], the pEC50 is given as 8.7 and the Emax was 13%. The same molecule gave an EC50 in test [2] of less than 31600 nM.
On to `CC(C)C(=O)OCCS(=O)(=O)NC(=O)c1ccc(N2C[C@@H]3C[C@H]2C[C@H]3OCc2c(-c3c(Cl)cccc3Cl)noc2C2CC2)cc1` [Compound I-213, 2-[({4-[(1S,4S,5R)-5-{[5-cyclopropyl-3-(2,6-dichlorophenyl)-1,2-oxazol-4-yl]methoxy}-2-azabicyclo[2.2.1]heptan-2-yl]phenyl}formamido)sulfonyl]ethyl 2-methylpropanoate], for which, in test [1], the negative-log EC50 (pEC50) is 9.4 and the Emax is 131%. Moreover, the EC50 in test [2] was less than 31.6 nM.
In the case of `O=C(NS(=O)(=O)C1CC1)c1ccc(N2C[C@@H]3C[C@H]2C[C@H]3OC(=O)c2c(-c3c(Cl)cccc3Cl)noc2C2CC2)cc1` [Compound I-47, (1S,4S,5R)-2-{4-[(cyclopropanesulfonyl)carbamoyl]phenyl}-2-azabicyclo[2.2.1]heptan-5-yl 5-cyclopropyl-3-(2,6-dichlorophenyl)-1,2-oxazole-4-carboxylate], in test [1], the pEC50 is given as 7.8 and the Emax came out at 174%. In test [2], the Emax came out at 106% and the response was half-maximal at 15.8 nM (EC50).
Take `O=C(O)c1cc(OC(F)(F)F)c2nc(N3C[C@@H]4C[C@H]3C[C@H]4OCc3c(-c4ccccc4C(F)(F)F)noc3C3CC3)sc2c1` [Compound I-20, 2-[(1S,4S,5R)-5-({5-cyclopropyl-3-[2-(trifluoromethyl)phenyl]-1,2-oxazol-4-yl}methoxy)-2-azabicyclo[2.2.1]heptan-2-yl]-4-(trifluoromethoxy)-1,3-benzothiazole-6-carboxylic Acid]: in test [1], the negative-log EC50 (pEC50) turned out to be 8.4 and the Emax was found to be 191%. In test [2], the Emax came out at 113% and it took 0.631 nM to reach a half-maximal effect (EC50).
On to `Cc1cccc(F)c1-c1noc(C2CC2)c1CO[C@@H]1C[C@@H]2C[C@H]1C(=O)N2c1ccc(C(=O)O)cc1` [Compound I-307, 4-[(1S,4R,5R)-5-{[5-cyclopropyl-3-(2-fluoro-6-methylphenyl)-1,2-oxazol-4-yl]methoxy}-3-oxo-2-azabicyclo[2.2.1]heptan-2-yl]benzoic Acid], for which, in test [1], the pEC50 is recorded as 7.4 and the Emax is 154%. Also, in test [2], the Emax is 110% and it took 10 nM to reach a half-maximal effect (EC50).
The corresponding values for `N#Cc1cc(C(=O)O)ccc1N1C[C@@H]2C[C@H]1C[C@H]2OCc1c(-c2c(Cl)cccc2Cl)noc1C1CC1` [Compound I-102, 3-cyano-4-[(1S,4S,5R)-5-{[5-cyclopropyl-3-(2,6-dichlorophenyl)-1,2-oxazol-4-yl]methoxy}-2-azabicyclo[2.2.1]heptan-2-yl]benzoic Acid] are 8.6, 112%, 106% and 0.794 nM.
Regarding `O=C(O)c1cc(OC2CC2)c2nc(N3C(=O)[C@@H]4C[C@H]3C[C@H]4OCc3c(-c4c(Cl)cccc4Cl)noc3C3CC3)sc2c1` [Compound I-297, 4-cyclopropoxy-2-((1S,4R,5R)-5-((5-cyclopropyl-3-(2,6-dichlorophenyl)isoxazol-4-yl)methoxy)-3-oxo-2-azabicyclo[2.2.1]heptan-2-yl)benzo[d]thiazole-6-carboxylic acid], in test [1], the pEC50 is given as 9 and the Emax was found to be 77%. For the same molecule, in test [2], the Emax was found to be 110% and the concentration giving a half-maximal response (EC50) is 0.316 nM.
In the case of `O=C(O)c1ccc(N2C[C@@H]3C[C@H]2C[C@H]3OCc2c(-c3c(F)cccc3Cl)noc2C2CC2)c(F)c1` [Compound I-119, 4-[(1S,4S,5R)-5-{[3-(2-chloro-6-fluorophenyl)-5-cyclopropyl-1,2-oxazol-4-yl]methoxy}-2-azabicyclo[2.2.1]heptan-2-yl]-3-fluorobenzoic Acid], in test [1], the pEC50 stood at 8.7 and the Emax came out at 145%. Besides, in test [2], the Emax came to 104% and the EC50 is 0.631 nM.
The corresponding values for `O=C(O)c1ccc(C2CC2)cc1N1C(=O)[C@@H]2C[C@H]1C[C@H]2OCc1c(-c2c(Cl)cccc2Cl)noc1C1CC1` [Compound I-320, 4-cyclopropyl-2-[(1S,4R,5R)-5-{[5-cyclopropyl-3-(2,6-dichlorophenyl)-1,2-oxazol-4-yl]methoxy}-3-oxo-2-azabicyclo[2.2.1]heptan-2-yl]benzoic Acid] are 7.5, 114%, 110% and 20 nM.
Turning to `O=C(O)c1cc(C2CCCOCC2)c2nc(N3C[C@@H]4C[C@H]3C[C@H]4OCc3c(-c4c(Cl)cccc4Cl)noc3C3CC3)sc2c1` (stereo partly drawn) [Compound I-258, 2-[(1S,4S,5R)-5-{[5-cyclopropyl-3-(2,6-dichlorophenyl)-1,2-oxazol-4-yl]methoxy}-2-azabicyclo[2.2.1]heptan-2-yl]-4-(oxepan-4-yl)-1,3-benzothiazole-6-carboxylic Acid], in test [1], the negative-log EC50 (pEC50) came to 8.6 and the Emax worked out at 146%. Further, in test [2], the Emax came to 106% and a half-maximal response (EC50) required 0.126 nM.
As to `O=C(NS(=O)(=O)C1CC1)c1cc(F)c2nc(N3C[C@@H]4C[C@H]3C[C@H]4OCc3c(-c4c(Cl)cccc4Cl)noc3C3CC3)sc2c1` [Compound I-30, N-(cyclopropanesulfonyl)-2-[(1S,4S,5R)-5-{[5-cyclopropyl-3-(2,6-dichlorophenyl)-1,2-oxazol-4-yl]methoxy}-2-azabicyclo[2.2.1]heptan-2-yl]-4-fluoro-1,3-benzothiazole-6-carboxamide], in test [1], the pEC50 stood at 8.6 and the Emax stood at 160%. Moreover, in test [2], the Emax came to 114% and a half-maximal effect (EC50) was put at 2.51 nM.
Take `CC(=O)OCCS(=O)(=O)NC(=O)c1ccc(N2C[C@@H]3C[C@H]2C[C@H]3OCc2c(-c3c(Cl)cccc3Cl)noc2C2CC2)cc1` [Compound I-211, 2-[({4-[(1S,4S,5R)-5-{[5-cyclopropyl-3-(2,6-dichlorophenyl)-1,2-oxazol-4-yl]methoxy}-2-azabicyclo[2.2.1]heptan-2-yl]phenyl}formamido)sulfonyl]ethyl Acetate]: in test [1], the pEC50 worked out at 8.4 and the Emax turned out to be 152%. In test [2], the Emax was found to be 105% and a half-maximal response (EC50) required 1 nM.
As for `O=C(O)c1ccc(N2C[C@@H]3C[C@H]2C[C@H]3OCc2c(-c3c(Cl)cccc3Cl)noc2C2(F)CC2)cc1F` [Compound I-122, 4-[(1S,4S,5R)-5-{[3-(2,6-dichlorophenyl)-5-(1-fluorocyclopropyl)-1,2-oxazol-4-yl]methoxy}-2-azabicyclo[2.2.1]heptan-2-yl]-2-fluorobenzoic Acid], in test [1], the pEC50 is recorded as 9.6 and the Emax was 137%. Moreover, in test [2], the Emax is 102% and the EC50 was 1.58 nM.
The matching figures for `O=C(O)c1ccc(N2C[C@@H]3C[C@H]2C[C@H]3OC(=O)c2c(-c3c(Cl)cccc3Cl)noc2C2CC2)cc1` [Compound I-42, 4-[(1S,4S,5R)-5-[5-cyclopropyl-3-(2,6-dichlorophenyl)-1,2-oxazole-4-carbonyloxy]-2-azabicyclo[2.2.1]heptan-2-yl]benzoic Acid]: 7.6, 166%, 110% and 39.8 nM.
The matching figures for `O=C(O)c1cc(F)c2nc(N3C[C@H]4C[C@@H]3C[C@@H]4OCc3c(-c4c(Cl)cccc4Cl)noc3C3CC3)sc2c1` [Compound I-39, 2-[(1R,4R,5S)-5-{[5-cyclopropyl-3-(2,6-dichlorophenyl)-1,2-oxazol-4-yl]methoxy}-2-azabicyclo[2.2.1]heptan-2-yl]-4-fluoro-1,3-benzothiazole-6-carboxylic Acid]: 7.8, 96%, 105% and 50.1 nM.
`O=C(O)CCc1ccc(N2C[C@@H]3C[C@H]2C[C@H]3OCc2c(-c3c(Cl)cccc3Cl)noc2C2CC2)c(F)c1` [Compound I-154, 3-{4-[(1S,4S,5R)-5-{[5-cyclopropyl-3-(2,6-dichlorophenyl)-1,2-oxazol-4-yl]methoxy}-2-azabicyclo[2.2.1]heptan-2-yl]-3-fluorophenyl}propanoic Acid]: in test [1], the pEC50 is recorded as 8.6 and the Emax stood at 158%. For the same molecule, in test [2], the Emax is 105% and the EC50 was 0.501 nM.
The corresponding values for `O=C(O)c1ccc(N2C(=O)[C@@H]3C[C@H]2C[C@H]3OCc2c(-c3c(Cl)cccc3Cl)noc2C2CC2)cc1F` [Compound I-314, 4-[(1S,4R,5R)-5-{[5-cyclopropyl-3-(2,6-dichlorophenyl)-1,2-oxazol-4-yl]methoxy}-3-oxo-2-azabicyclo[2.2.1]heptan-2-yl]-2-fluorobenzoic Acid] are 8.4, 145%, 103% and 2.51 nM.
With `O=C(O)C1(c2ccc(N3C[C@@H]4C[C@H]3C[C@H]4OCc3c(-c4c(Cl)cccc4Cl)noc3C3CC3)cc2)CCC1` [Compound I-150, 1-{4-[(1S,4S,5R)-5-{[5-cyclopropyl-3-(2,6-dichlorophenyl)-1,2-oxazol-4-yl]methoxy}-2-azabicyclo[2.2.1]heptan-2-yl]phenyl}cyclobutane-1-carboxylic Acid], in test [1], the pEC50 was found to be 8.9 and the Emax was 102%. In test [2], the Emax amounted to 96% and the midpoint of the response, the EC50, lay at 25.1 nM.

The values above are taken from patent US10793568B2, “Hormone receptor modulators for treating metabolic conditions and disorders” (ARDELYX, INC., priority 2016, dated 2020).
